Consider 10 compounds from US8889156B2, “Calcium-binding agents induce hair growth and/or nail growth” (priority 2009, dated 2014).

Where two headings read alike, the source gives them in different places. Ends that are not written are not given here.

For test [1] the following is noted: literature values quoted for comparison; cited from earlier work.
Test [2] is described as follows: Binding of labeled peptides to carious lesions in teeth (CLSM). The following applies: labeled peptide, settings optimized per sample. More on the design: species or system human. An excerpt: Sections of human teeth containing obvious carious lesions, which consist of demineralized enamel, were polished and exposed to 5(6)-carboxyfluorescein-labeled DSS peptides and variants. The sections were washed extensively and imaged by CLSM using blue laser illumination (A=488 nm) and a FITC emission filter, with microscope and camera settings adjusted for each sample to optimize the signal detected from each peptide. The images were examined to identify the relative levels of peptide binding in healthy versus carious tissue. […] Given their ability to remineralize at sites of enamel degradation, they can also be used to initiate remineralization at sites of enamel degradation such as caries or injury sites without causing inappropriate nucleation on healthy tissue surfaces.

A short description of test [3]: HA binding assay (pulldown of fluorescein-labeled peptides, Langmuir isotherm fit). The settings on record: fit of Langmuir equation. How it is done:
Fluorescein-labeled DSS-containing peptides of various lengths were subjected to pulldown assays as follows: Samples containing varying concentrations of fluorescein-labeled peptide (0-100 μM) and a fixed amount (0.3 mg) of HA nanocrystals with a specific surface area of 100 m^2/g (Berkeley Advanced Biomaterials, Berkeley, Calif.) were prepared. Measurements were taken of the absorbance of the labeled peptide at 488 nm (the peak absorbance of the fluorescein label) before and after exposure to the HA. The amount of peptide bound was calculated by comparing the ratio of the final (Af) and initial (Ai) absorbances to the initial concentration (C0) [Cbound=(Af/Ai)C0]. Plots were generated of the amount of peptide bound per meter squared of HA surface area vs. concentration of unbound peptide at equilibrium. The resulting isotherms were fit to the Langmuir isotherm, x/m=(KANmaxCeq)/(1+KACeq), where x/m represents the molar amount of peptide bound per unit of HA surface area, KA is the affinity constant of the peptide for the HA surface (L/Mol), Nmax is the maximum surface concentration (mol/m^2), and Ceq is the molar concentration of unbound peptide at equilibrium (Calis et al. (1995) Pharm Res., 12: 1072-1076).
In order to quantitatively assess the strength of the DSS-HA interaction as well as to determine the roles of peptide length and sequence on binding, fluorescein-labeled, DSS-containing peptides of various lengths were subjected to pulldown assays as described in “Materials and Methods.”
The experimental data were fit to the Langmuir isotherm, which describes the binding of molecules to surfaces with the conditions that (1) all binding sites have the same affinity for the peptide and (2) the peptide will form a monolayer on the surface but cannot accumulate to higher levels (Atkins (1994) Physical chemistry. Freeman, New York). The excellent fit of the Langmuir isotherm to the experimental data validates these conditions, and the constants obtained from this analysis were used for comparisons between peptides. As shown in FIG. 7A and summarized in Table 6, both the binding affinity (KA) and the monolayer concentration (NMax) of the various peptides increased with the number of DSS repeats per peptide. Additionally, several variant peptides were tested (FIGS. 7B, 7C, Table 6): a peptide containing a longer side chain at the first position (4ESS (SEQ ID NO:34)), peptides containing a more sterically hindered hydroxyl group at the second and third positions (4DTT (SEQ ID NO:36), 4NTT (SEQ ID NO:38), 4ETT (SEQ ID NO:37)), peptides lacking a charged group at the first position (4NSS (SEQ ID NO:35), 8ASS (SEQ ID NO:26)), and peptides lacking hydroxyl groups at the second and third positions (DAA-8 (SEQ ID NO:40), 8NAA (SEQ ID NO:41)).

Test [4] is described as follows: Free peptide with CaCl2 and NaHPO4: formation of HA crystals in solution. The settings on record: 25 μM free peptide.
Test [5] can be described thus: Binding of labeled peptide to sagittally sectioned adult human molars (CLSM, Example 6). The settings on record: fluorescein-labeled peptide, 10 min. How it is done:
For binding experiments, sagittally sectioned adult human molars were incubated for 10 min in a solution of 12.5 p.M 5(6)-carboxyfluorescein-labeled 6DSS (SEQ ID NO:32) peptide containing 10 mM NaCl and 50 mM HEPES, pH 7.0. Control samples were prepared without peptide. Samples were rinsed after treatment and imaged by confocal laser scanning microscopy (CLSM) with illumination by a blue Kr/Ar laser (λ=488 nm) and a FITC emission filter. To test binding of DSS-containing peptides to biological tissue, sagittally sectioned human teeth were incubated treated with 6DSS (SEQ ID NO:32) (control samples were prepared without peptide), washed, and imaged by CLSM.

Test [6] is described as follows: Tissue specific binding of labeled peptides to sections of human teeth (CLSM). The settings on record: 5(6)-carboxyfluorescein-labeled peptide, ten minutes. An excerpt:
In order to investigate the tissue specificity of DSS peptide binding to tooth tissue, sections of human teeth were exposed to DSS peptides and variants, then imaged by CLSM. The peptides utilized for these experiments were 8DSS (SEQ ID NO:33), 8ASS (SEQ ID NO:26), 8DAA (SEQ ID NO:40), 8NAA (SEQ ID NO:41), 4DSS (SEQ ID NO:31), 4ESS (SEQ ID NO:34), 4NSS (SEQ ID NO:35), 4DTT (SEQ ID NO:36), 4ETT (SEQ ID NO:37), 4NTT (SEQ ID NO:38), and 6DSS (SEQ ID NO:32). Sagittal sections of human teeth extracted during normal clinical practice were polished and then incubated for ten minutes in a solution of the appropriate 5(6) carboxyfluorescein-labeled peptide (12.5pM) containing 10 mM NaCl and 50 mM HEPES, pH 7.0. Control samples were prepared without peptide. Samples were washed extensively after treatment and imaged by CLSM using blue laser illumination (A=488 nm) and a FITC emission filter, with identical camera and microscope settings for each sample. For each section, multiple scans were collected and assembled in an automated mode to generate panels of images representing an area of 13×13 mm, sufficient in most cases to encompass the whole section. […] Significant binding was also seen to the edges of the pulp cavity.

For test [7], the system named is mineralizing mouse bone marrow nodules. Nature of the test: Binding to mineralizing mouse bone marrow cultures (fluorescence microscopy). It counts as cell-based. The following applies: labeled peptide, continuous treatment for 3 weeks. The procedure: Mouse bone marrow cultures were grown to confluence in DMEM+10% FBS and then treated continuously for 3 weeks with either 2.5 p.M 5(6)-carboxyfluorescein-labeled 6DSS (SEQ ID NO:32) or 2.5 p.M 5(6)-carboxyfluorescein-labeled peptide #3-1 (control peptide) in α-MEM+10% FBS+50 p.g/mL ascorbic acid 4 mM β-glycerophosphate. Cultures were imaged by fluorescence microscopy using a FITC excitation/emission filter set.
Having established that (DSS)n-containing peptides are able to actively bind HA, we sought to determine whether they would bind to emerging sites of mineralization in biologically derived tissue. Mouse bone marrow (MBM) cultures, cultured under osteogenic conditions, were treated continuously for 3 weeks with either labeled 6DSS (SEQ ID NO:32) peptide or labeled peptide #3-1 (non-calcium-binding control peptide). Cultures were imaged by fluorescence microscopy using a FITC excitation/emission filter set.

The test system of test [8] is Streptococcus mutans strain UA159. It counts as cell-based. The procedure: The sequences of these fusion proteins are […] NO:24), and […] NO:25) (see SEQ ID NOs:27-29, respectively in WO 2007/038683). The antimicrobial activity of these peptides against anaerobic planktonic bacteria was determined by a modification of a previously described assay. Briefly, Streptococcus mutans strain UA159 cells were diluted to -1×10^5 cfu/mL in Todd-Hewitt (TH) broth medium and mixed with either suspended hydroxyapatite nanocrystals (Berkeley Advanced Biomaterials, Inc., 0.03% w/v) or, for control samples, an equivalent volume of deionized water. Aliquots were transferred into 96-well plates (Fisher). Serial dilutions of the peptides were then made and added to the bacteria. […] Nonetheless, some antimicrobial activity is retained by this peptide.

Consider `N[C@@H](CC(=O)O)C(=O)O` [Asp, aspartic acid], for which the HA binding affinity in test [1] is 220 M⁻¹.
Take `N[C@@H](CCC(=O)O)C(=O)O` [glutamic acid]: in test [1], the HA binding affinity was 206 M⁻¹.
In the case of `N[C@@H](COP(=O)(O)O)C(=O)O` [phosphoserine], in test [1], the HA binding affinity is listed as 5,000-13,200 M^−1.
For `N[C@@H](CO)C(=O)O` [serine], the HA binding affinity in test [1] is 317,000 M^−1.
Take “DSS DSS DSS DSS DSS DSS (DSSDSSDSSDSSDSSDSS; synthetic calcium-binding peptide 6DSS)”: in test [2], the “specificity of binding to carious lesions versus healthy enamel” value is “highly specific binding to carious lesions” and the “strength of staining of carious lesions” value is given as “exceptionally strong staining of carious lesions”. Also, the “Nmax (maximum monolayer surface concentration)” value in test [3] was 1.3 × 10^−7 ± 3 × 10^−9 mol/m^2. In addition, the “KA (binding affinity for HA)” value in test [3] (fluorescein-labeled peptide 0-100 μM, 0.3 mg HA nanocrystals) is given as 272,000 ± 26,000 M^−1. Also, in test [4], the “enhancement of HA crystal formation by free peptide at subcritical CaHPO4 concentrations” value is “this was not observed”. Besides, in test [5], the binding to dentin entry is reported as “intense fluorescent staining” and the binding to enamel entry was “no binding to the enamel was seen”. Further, the “tissue pattern of binding in the tooth section” value in test [6] is “bound primarily to the mantle dentin”. Besides, the “level of binding (staining) to tooth surfaces” value in test [6] (identical settings) is recorded as “the greatest levels of staining”. Also, the “staining of mineralizing MBM nodules” value in test [7] is on record as “bright staining of the mineralizing MBM nodules”.
Take “DSSDSSDSSDSSGGGRWRWRWF [4DSS-2c4, DSS DSS DSS DSS GGG RWRWRWF]”: the MIC entry in test [8] (planktonic S. mutans, with 0.03% (w/v) hydroxyapatite, approximately 24 hours) is recorded as “unaffected”; in test [8] (strain UA159, 24 h), 52.5.
The compound “FHFHLHF [PL-135, FHFHLHF, reference compound]” came in with an MIC in test [8] (strain UA159, 24 h) of 21.
For LIKHILHRL [#3-1, reference compound], the “staining of mineralizing MBM nodules” value in test [7] is “no binding seen”.
In test [8] (strain UA159, 24 h), “LKRFLKWFKRF [b-34, LKRF LKWF KRF, reference compound]” gave an MIC of 5.6.
Turning to “RWRWRWF [2c-4, RWRWRWF, reference compound]”, the MIC in test [8] (strain UA159, 24 h) came to 2.
